Reference: patent publication US9737075B2, “Synergistic benzoxaborole-containing anti-fungicidal composition” (The Penn State Research Foundation, priority 2015, dated 2017)
In brackets after ≈: the same amount, converted by molar mass. Like-named read-outs stand apart in the source and are kept apart here.

Tests used:
Format in all cases: cell-based
Aspergillus niger = experiment: Broth microdilution MIC of individual antifungals; conditions: for MIC: read-out: Independent MIC
Botrytis cinerea 10-1728 = experiment: Broth microdilution MIC of individual antifungals; conditions: Botrytis cinerea 10-1728, individual antifungal, 25% PDB, about 25° C., 72 hours, range over N independent triplicate studies; for MIC: 101728, read-out: Independent MIC
Magnaporthe grisea = experiment: microbe, parasite or virus in culture; conditions: for Independent MIC: Magnaporthe grisea, individual antifungal, 25% PDB, about 25° C., 72 hours, range over N independent triplicate studies; for MIC: Pyricularia oryzae, 72 h, read-out: Independent MIC
Stachybotrys chartarum = experiment: Broth microdilution MIC of individual antifungals; conditions: individual antifungal, 25% PDB, about 25° C., 72 hours, range over N independent triplicate studies, read-out: Independent MIC
Aspergillus fumigatus = experiment: Broth microdilution MIC of individual antifungals; conditions: individual antifungal, 25% PDB, about 25° C., 72 hours, range over N independent triplicate studies; for MIC: read-out: Independent MIC
Sclerotinia homoeocarpa = experiment: Broth microdilution MIC of individual antifungals; conditions: Sclerotinia homoeocarpa, individual antifungal, 25% PDB, about 25° C., 72 hours, range over N independent triplicate studies; for MIC: Clarireedia homoeocarpa, read-out: Independent MIC
Alternaria solani = experiment: Broth microdilution MIC of individual antifungals; conditions: individual antifungal, 25% PDB, about 25° C., 72 hours, range over N independent triplicate studies; for MIC: read-out: Independent MIC
Rhizopus sp. = experiment: Broth microdilution MIC of individual antifungals; conditions: for MIC: Rhizopus, 72 h, read-out: Independent MIC
Aureobasidium pullulans = experiment: Broth microdilution MIC of individual antifungals; conditions: read-out: Independent MIC
Botrytis cinerea B17 = experiment: Broth microdilution MIC of individual antifungals; conditions: Botrytis cinerea B17; individual antifungal, 25% PDB, about 25° C., 72 hours; range over N independent triplicate studies; read-out: Independent MIC
Mucor sp. = experiment: Broth microdilution MIC of individual antifungals; conditions: individual antifungal, 25% PDB, about 25° C., 72 hours, range over N independent triplicate studies
Phytophthora pini = experiment: Broth microdilution MIC of individual antifungals; conditions: individual antifungal, 25% PDB, about 25° C., 72 hours, range over N independent triplicate studies
Penicillium chrysogenum = experiment: Broth microdilution MIC of individual antifungals; conditions: individual antifungal, 25% PDB, about 25° C., 72 hours, range over N independent triplicate studies, read-out: Independent MIC
Aspergillus flavus = experiment: Broth microdilution MIC of individual antifungals; conditions: individual antifungal, 25% PDB, about 25° C., 72 hours, range over N independent triplicate studies, read-out: Independent MIC
[1] = test system: Colletotrichum orbiculare; experiment: Broth microdilution MIC of individual antifungals; conditions: individual antifungal, 25% PDB, about 25° C., 72 hours, range over N independent triplicate studies; for MIC: read-out: Independent MIC
Fusarium graminearum = experiment: microbe, parasite or virus in culture; conditions: Fusarium graminearum; for MIC: 72 h, read-out: Independent MIC
[2] = test system: Mycosphaerella zeae-maydis; experiment: Broth microdilution MIC of individual antifungals; conditions: Didymella maydis, individual antifungal, 25% PDB, about 25° C., 72 hours, range over N independent triplicate studies
Fusarium verticillioides = experiment: Broth microdilution MIC of individual antifungals; conditions: individual antifungal, 25% PDB, about 25° C., 72 hours, range over N independent triplicate studies, read-out: Independent MIC
Candida albicans = experiment: Broth microdilution MIC of individual antifungals; conditions: individual antifungal, 25% PDB, about 25° C., 72 hours, range over N independent triplicate studies, read-out: Independent MIC
[3] = test system: Fusarium solani f. sp. pisi (MP VI); experiment: Broth microdilution MIC of individual antifungals; conditions: Fusarium solani f. sp. pisi (MP VI); individual antifungal, 25% PDB, about 25° C., 72 hours; range over N independent triplicate studies; read-out: Independent MIC
[4] = individual antifungal, 25% PDB, about 25° C., 72 hours, range over N independent triplicate studies
[5] = Rhizopus sp., individual antifungal, 25% PDB, about 25° C., 72 hours, range over N independent triplicate studies

Compound	MIC (Aspergillus fumigatus) [µg/mL]	MIC (Sclerotinia homoeocarpa) [µg/mL]	MIC (Alternaria solani) [µg/mL]	MIC (Aspergillus niger; [4]) [µg/mL]	MIC (Mucor sp.) [µg/mL]	MIC (Botrytis cinerea 10-1728) [µg/mL]	MIC (Magnaporthe grisea) [µg/mL]	MIC (Rhizopus sp.; [5]) [µg/mL]	further results
Cn1cc(C(=O)Nc2ccccc2-c2cc(F)c(F)c(F)c2)c(C(F)F)n1 [Fluxapyroxad, fluxapyroxad]									Independent MIC (Aspergillus niger; [4]): (0.39-0.4) μg/mL; Independent MIC (Botrytis cinerea 10-1728): 6.25 µg/mL; Independent MIC (Magnaporthe grisea): 3.13 µg/mL
CC(C)NC(=O)N1CC(=O)N(c2cc(Cl)cc(Cl)c2)C1=O [Iprodione, ipordione]	12.5 to 50	4 to 10	3.12 to 6.25	50 to 100	1.56 to 6.25	15 to 25	12.5 (≈ 37.9 µM)		MIC (Stachybotrys chartarum): 25 to 30 µg/mL; MIC (Rhizopus sp.): 3.12 to 12.5 µg/mL; MIC (Aureobasidium pullulans; 72 h): 12.5 to 50 µg/mL; MIC (Botrytis cinerea B17): 16 to 20 µg/mL
C[C@H]1O[C@H](O[C@H]2[C@H](O)[C@@H](O)[C@@H](O)[C@H](O)[C@@H]2O)[C@@H](N)C[C@@H]1NC(=N)C(=O)O [Kasugamycin]									Independent MIC (Sclerotinia homoeocarpa): 100 µg/mL; Independent MIC (Alternaria solani): (100-200) μg/mL; Independent MIC (Phytophthora pini): 200 µg/mL; Independent MIC (Botrytis cinerea 10-1728): 200 µg/mL
CC#Cc1cc(C)nc(Nc2ccccc2)n1 [Mepanipyrim, mepanipyrim]	0.05 to 0.1	0.098 to 0.19		25		50 to 100		50	MIC (Penicillium chrysogenum): 0.025 to 0.048 µg/mL; MIC (Aspergillus flavus): 0.75 µg/mL
COCC(=O)N(c1c(C)cccc1C)C(C)C(=O)OC (stereo not shown) [Metalaxyl, metalaxyl]	400	128 to 200		400				400	MIC (Aspergillus flavus): 400 µg/mL; MIC (Botrytis cinerea B17): 50 to 64 µg/mL
CC(C)CC(C)c1sccc1NC(=O)c1cn(C)nc1C(F)(F)F (stereo not shown) [Penthiopyrad, penthiopyrad]						15 to 25	1.56 (≈ 4.34 µM)		MIC (Aspergillus flavus): 100 µg/mL; MIC (Aspergillus niger; 72 h): 0.78 to 1.56 µg/mL; MIC [1]: 50 to 100 µg/mL
CO/C=C(/C(=O)OC)c1ccccc1COc1cccc(C(F)(F)F)n1 [Picoxystrobin, picoxystrobin]									Independent MIC (Aspergillus fumigatus): (25-50) μg/mL; Independent MIC (Sclerotinia homoeocarpa): 1.56 µg/mL; Independent MIC (Mucor sp.): (50-200) μg/mL; Independent MIC (Fusarium graminearum; [4]): (200-400) μg/mL; Independent MIC (Botrytis cinerea 10-1728): (100-200) μg/mL; Independent MIC (Magnaporthe grisea): (3.13-6.25) μg/mL
C=CCOC1=NS(=O)(=O)c2ccccc21 [Probenazole, probenazole]		50 to 100	200		200	100	100 (≈ 448 µM)		MIC (Phytophthora pini): 200 µg/mL; MIC [2]: 200 µg/mL
CCCOC(=O)NCCCN(C)C [Propamocarb, propamocarb]		200	100 to 200		200 to 400	100 to 400			
CCCC1COC(Cn2cncn2)(c2ccc(Cl)cc2Cl)O1 (stereo not shown) [Propiconazole, propiconazole]	2.5 to 6.25	0.5 to 1	100 to 160	12.5	50	1.25 to 3.12	1.56 (≈ 4.56 µM)	12.5 to 24	MIC (Penicillium chrysogenum): 6.25 to 12.5 µg/mL; MIC (Stachybotrys chartarum): 6.25 to 12.5 µg/mL; MIC (Fusarium verticillioides): 0.5 to 2 µg/mL; Independent MIC (Rhizopus sp.; [5]): 12.5 µg/mL; MIC (Aureobasidium pullulans; 72 h): 1.56 to 6 µg/mL; MIC (Candida albicans): 100 to 200 µg/mL; MIC (Phytophthora pini): 6.25 µg/mL; MIC (Aspergillus flavus): 6.25 to 12.5 µg/mL; MIC [2]: 3 to 6.25 µg/mL; MIC (Botrytis cinerea B17): 1 to 2 µg/mL; MIC (Fusarium graminearum): 12.5 to 25 µg/mL (≈ 36.5 to 73.1 µM); MIC [3]: 200 µg/mL; MIC [1]: 3.12 µg/mL
COC(=O)N(OC)c1ccccc1COc1ccn(-c2ccc(Cl)cc2)n1 [Pyraclostrobin, pyraclostrobin]	20 to 25	0.5	50 to 100	25 to 50	100	200	0.02 to 0.025 (≈ 0.0516 to 0.0645 µM)	50	MIC (Penicillium chrysogenum): 0.1 to 0.4 µg/mL; MIC (Stachybotrys chartarum): 1.56 to 4 µg/mL; MIC (Aureobasidium pullulans; [4]): 0.188 to 0.78 µg/mL; MIC (Phytophthora pini): 1.56 µg/mL; MIC [2]: 2 to 4 µg/mL; MIC (Botrytis cinerea B17): 3.75 to 8 µg/mL; MIC (Fusarium graminearum): 200 µg/mL (≈ 516 µM); MIC [3]: 100 to 200 µg/mL; MIC [1]: 3.12 µg/mL
Fc1ccc(Oc2ccnc3cc(Cl)cc(Cl)c23)cc1 [Quinoxyfen, quinoxyfen]						50 to 100		100 to 200	
O=[N+]([O-])c1c(Cl)c(Cl)c(Cl)c(Cl)c1Cl [Quintozene, quintozene]									Independent MIC (Botrytis cinerea 10-1728): 50 µg/mL; Independent MIC [1]: (25-50) μg/mL
C=CC1(C)OC(=O)N(c2cc(Cl)cc(Cl)c2)C1=O (stereo not shown) [Vinclozolin, vinclozolin]	100 to 200	4 to 5		50 to 100	100 to 200	100 to 400		100	MIC [2]: 6.25 to 16 µg/mL
CCC(C)(NC(=O)c1cc(Cl)c(C)c(Cl)c1)C(=O)CCl (stereo not shown) [Zoxamide, zoxamide]						0.39 to 1.6			
